Source: patent publication US9260439B2, “Dihydropyrrolopyrimidine derivatives” (PFIZER INC., priority 2014, dated 2016)

Biological target: truncated PI3Kα (p110α/iSH2 p85α) (Homo sapiens (Human), UniProt P42336)
Test: PI3KA_Act fluorescence polarization kinase assay (Ki)
Assay type: biochemical
Settings: 1 mM ATP
Method in brief: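 p110α/iSH2 p85α (0.5 nM) was reacted with 30 μM sonicated PIP2 in 50 mM HEPES pH 7.4, 150 mM NaCl, 5 mM MgCl2, 1 mM DTT and 0.05% CHAPS for 30 min at room temperature, then stopped with EDTA. PIP3 was detected by fluorescence polarization (GST-Grp1 PH domain/TAMRA-PIP3), and Ki came from a Morrison tight-binding fit.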

Sequence of truncated PI3Kα (p110α/iSH2 p85α) (P42336 whole entry, the tested form may be a part): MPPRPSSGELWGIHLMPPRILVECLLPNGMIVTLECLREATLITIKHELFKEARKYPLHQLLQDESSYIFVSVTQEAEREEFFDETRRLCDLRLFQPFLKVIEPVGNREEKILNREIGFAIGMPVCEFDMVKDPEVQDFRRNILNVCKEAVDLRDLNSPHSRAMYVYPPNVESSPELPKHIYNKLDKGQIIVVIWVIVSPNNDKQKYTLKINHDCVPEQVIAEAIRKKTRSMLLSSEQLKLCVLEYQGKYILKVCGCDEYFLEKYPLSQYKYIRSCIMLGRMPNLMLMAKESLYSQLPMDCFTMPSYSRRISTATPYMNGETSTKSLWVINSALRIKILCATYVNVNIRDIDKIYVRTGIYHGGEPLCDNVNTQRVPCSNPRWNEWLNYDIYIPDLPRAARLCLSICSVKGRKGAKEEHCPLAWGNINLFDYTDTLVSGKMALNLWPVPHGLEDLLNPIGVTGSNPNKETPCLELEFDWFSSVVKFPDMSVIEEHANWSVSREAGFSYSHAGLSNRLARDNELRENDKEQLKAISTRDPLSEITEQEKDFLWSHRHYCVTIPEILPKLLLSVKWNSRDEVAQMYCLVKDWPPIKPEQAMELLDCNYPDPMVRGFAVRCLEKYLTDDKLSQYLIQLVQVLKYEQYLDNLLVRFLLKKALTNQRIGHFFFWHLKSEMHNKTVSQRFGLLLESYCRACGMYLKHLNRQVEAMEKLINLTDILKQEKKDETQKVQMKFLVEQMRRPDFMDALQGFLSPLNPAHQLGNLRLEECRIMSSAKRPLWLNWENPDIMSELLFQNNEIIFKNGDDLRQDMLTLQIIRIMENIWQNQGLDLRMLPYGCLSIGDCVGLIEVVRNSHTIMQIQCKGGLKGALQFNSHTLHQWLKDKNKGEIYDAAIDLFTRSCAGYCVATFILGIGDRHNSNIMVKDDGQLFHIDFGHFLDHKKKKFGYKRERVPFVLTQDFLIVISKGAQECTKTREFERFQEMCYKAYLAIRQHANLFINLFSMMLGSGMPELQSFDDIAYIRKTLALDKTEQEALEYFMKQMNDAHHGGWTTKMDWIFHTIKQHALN

Structure (SMILES) | PI3KA_Act Ki
CNCC(C)(C)C(=O)N1CC[C@](C)(N2CCc3c(-c4cnc(N)nc4)nc(N4CCOCC4)nc32)C1.Cl [Example 306, 1-{(3S)-3-[4-(2-aminopyrimidin-5-yl)-2-(morpholin-4-yl)-5,6-dihydro-7H-pyrrolo[2,3-d]pyrimidin-7-yl]-3-methylpyrrolidin-1-yl}-2,2-dimethyl-3-(methylamino) propan-1-one hydrochloride] | <0.018 nM
C[C@]1(N2CCc3c(-c4cnc(N)nc4)nc(N4CCOCC4)nc32)CCN(C(=O)C(F)(F)CN)C1.Cl [Example 307, 3-amino-1-{(3S)-3-[4-(2-aminopyrimidin-5-yl)-2-(morpholin-4-yl)-5,6-dihydro-7H-pyrrolo[2,3-d]pyrimidin-7-yl]-3-methylpyrrolidin-1-yl}-2,2-difluoropropan-1-one hydrochloride] | <0.018 nM
C[C@@]1(N2CCc3c(-c4cnc(N)nc4)nc(N4CCOCC4)nc32)CCN(C(=O)CC(F)(F)F)C1 [Example 308, 1-{(3R)-3-[4-(2-aminopyrimidin-5-yl)-2-(morpholin-4-yl)-5,6-dihydro-7H-pyrrolo[2,3-d]pyrimidin-7-yl]-3-methylpyrrolidin-1-yl}-3,3,3-trifluoropropan-1-one] | 0.126 nM
C[C@]1(N2CCc3c(-c4cnc(N)nc4)nc(N4CCOCC4)nc32)CCN(C(=O)CC(F)(F)F)C1 [Example 309, 1-{(3S)-3-[4-(2-aminopyrimidin-5-yl)-2-(morpholin-4-yl)-5,6-dihydro-7H-pyrrolo[2,3-d]pyrimidin-7-yl]-3-methylpyrrolidin-1-yl}-3,3,3-trifluoropropan-1-one] | 0.056 nM
CC(C)[C@@H](N)C(=O)N1CC[C@](C)(N2CCc3c(-c4cnc(N)nc4)nc(N4CCOCC4)nc32)C1.Cl [Example 310, (2R)-2-amino-1-{(3S)-3-[4-(2-aminopyrimidin-5-yl)-2-(morpholin-4-yl)-5,6-dihydro-7H-pyrrolo[2,3-d]pyrimidin-7-yl]-3-methylpyrrolidin-1-yl}-3-methylbutan-1-one hydrochloride] | 0.022 nM
C[C@]1(N2CCc3c(-c4cnc(N)nc4)nc(N4CCOCC4)nc32)CCN(C(=O)[C@@](C)(N)C(F)(F)F)C1.Cl [Example 311, (2R)-2-amino-1-{(3S)-3-[4-(2-aminopyrimidin-5-yl)-2-(morpholin-4-yl)-5,6-dihydro-7H-pyrrolo[2,3-d]pyrimidin-7-yl]-3-methylpyrrolidin-1-yl}-3,3,3-trifluoro-2-methylpropan-1-one hydrochloride] | 0.054 nM
C[C@]1(N2CCc3c(-c4cnc(N)nc4)nc(N4CCOCC4)nc32)CCN(C(=O)[C@](C)(N)C(F)(F)F)C1.Cl [Example 312, (2S)-2-amino-1-{(3S)-3-[4-(2-aminopyrimidin-5-yl)-2-(morpholin-4-yl)-5,6-dihydro-7H-pyrrolo[2,3-d]pyrimidin-7-yl]-3-methylpyrrolidin-1-yl}-3,3,3-trifluoro-2-methylpropan-1-one hydrochloride] | 0.037 nM
C[C@]1(N2CCc3c(-c4cnc(N)nc4)nc(N4CCOCC4)nc32)CCN(C(=O)[C@@H](N)C(F)(F)F)C1.Cl [Example 313, (2R)-2-amino-1-{(3S)-3-[4-(2-aminopyrimidin-5-yl)-2-(morpholin-4-yl)-5,6-dihydro-7H-pyrrolo[2,3-d]pyrimidin-7-yl]-3-methylpyrrolidin-1-yl}-3,3,3-trifluoropropan-1-one hydrochloride] | 0.128 nM
C[C@]1(N2CCc3c(-c4cnc(N)nc4)nc(N4CCOCC4)nc32)CCN(C(=O)[C@H](N)C(F)(F)F)C1.Cl [Example 314, (2S)-2-amino-1-{(3S)-3-[4-(2-aminopyrimidin-5-yl)-2-(morpholin-4-yl)-5,6-dihydro-7H-pyrrolo[2,3-d]pyrimidin-7-yl]-3-methylpyrrolidin-1-yl}-3,3,3-trifluoropropan-1-one hydrochloride] | <0.018 nM
CC(C(N)=O)C(=O)N1CC[C@](C)(N2CCc3c(-c4cnc(N)nc4)nc(N4CCOCC4)nc32)C1 (stereo partly drawn) [Example 315, 3-{(3S)-3-[4-(2-aminopyrimidin-5-yl)-2-(morpholin-4-yl)-5,6-dihydro-7H-pyrrolo[2,3-d]pyrimidin-7-yl]-3-methylpyrrolidin-1-yl}-2-methyl-3-oxopropanamide] | <0.018 nM
CC(C)(C(N)=O)C(=O)N1CC[C@](C)(N2CCc3c(-c4cnc(N)nc4)nc(N4CCOCC4)nc32)C1 [Example 318, 3-{(3S)-3-[4-(2-aminopyrimidin-5-yl)-2-(morpholin-4-yl)-5,6-dihydro-7H-pyrrolo[2,3-d]pyrimidin-7-yl]-3-methylpyrrolidin-1-yl}-2,2-dimethyl-3-oxopropanamide] | 0.076 nM
CC(C)(C(=O)O)C(=O)N1CC[C@](C)(N2CCc3c(-c4cnc(N)nc4)nc(N4CCOCC4)nc32)C1 [Example 319, 3-{(3S)-3-[4-(2-aminopyrimidin-5-yl)-2-(morpholin-4-yl)-5,6-dihydro-7H-pyrrolo[2,3-d]pyrimidin-7-yl]-3-methylpyrrolidin-1-yl}-2,2-dimethyl-3-oxopropanoic acid] | 2.266 nM
CC(C(=O)O)C(=O)N1CC[C@](C)(N2CCc3c(-c4cnc(N)nc4)nc(N4CCOCC4)nc32)C1 (stereo partly drawn) [Example 320, 3-{(3S)-3-[4-(2-aminopyrimidin-5-yl)-2-(morpholin-4-yl)-5,6-dihydro-7H-pyrrolo[2,3-d]pyrimidin-7-yl]-3-methylpyrrolidin-1-yl}-2-methyl-3-oxopropanoic acid] | 0.318 nM
CCOC(=O)C(C)C(=O)N1CC[C@](C)(N2CCc3c(-c4cnc(N)nc4)nc(N4CCOCC4)nc32)C1 (stereo partly drawn) [Example 321, ethyl 3-{(3S)-3-[4-(2-aminopyrimidin-5-yl)-2-(morpholin-4-yl)-5,6-dihydro-7H-pyrrolo[2,3-d]pyrimidin-7-yl]-3-methylpyrrolidin-1-yl}-2-methyl-3-oxopropanoate] | 0.042 nM
CCOC(=O)C(C)(C)C(=O)N1CC[C@](C)(N2CCc3c(-c4cnc(N)nc4)nc(N4CCOCC4)nc32)C1 [Example 322, ethyl 3-{(3S)-3-[4-(2-aminopyrimidin-5-yl)-2-(morpholin-4-yl)-5,6-dihydro-7H-pyrrolo[2,3-d]pyrimidin-7-yl]-3-methylpyrrolidin-1-yl}-2,2-dimethyl-3-oxopropanoate] | <0.018 nM
C[C@]1(N2CCc3c(-c4cnc(N)nc4)nc(N4CCOCC4)nc32)CCN(C(=O)CC2CC2)C1 [Example 323, 1-{(3S)-3-[4-(2-aminopyrimidin-5-yl)-2-(morpholin-4-yl)-5,6-dihydro-7H-pyrrolo[2,3-d]pyrimidin-7-yl]-3-methylpyrrolidin-1-yl}-2-cyclopropylethanone] | <0.018 nM
C[C@@]1(N2CCc3c(-c4cnc(N)nc4)nc(N4CCOCC4)nc32)CCN(C(=O)CC2CC2)C1 [Example 324, 1-{(3R)-3-[4-(2-aminopyrimidin-5-yl)-2-(morpholin-4-yl)-5,6-dihydro-7H-pyrrolo[2,3-d]pyrimidin-7-yl]-3-methylpyrrolidin-1-yl}-2-cyclopropylethanone] | 0.198 nM
C[C@]1(N2CCc3c(-c4cnc(N)nc4)nc(N4CCOCC4)nc32)CCN(C(=O)CN2CCC2)C1 [Example 325, 1-{(3S)-3-[4-(2-aminopyrimidin-5-yl)-2-(morpholin-4-yl)-5,6-dihydro-7H-pyrrolo[2,3-d]pyrimidin-7-yl]-3-methylpyrrolidin-1-yl}-2-(azetidin-1-yl)ethanone] | 0.058 nM
C[C@]1(N2CCc3c(-c4cnc(N)nc4)nc(N4CCOCC4)nc32)CCN(C(=O)C2CC2)C1 [Example 328, {(3S)-3-[4-(2-aminopyrimidin-5-yl)-2-(morpholin-4-yl)-5,6-dihydro-7H-pyrrolo[2,3-d]pyrimidin-7-yl]-3-methylpyrrolidin-1-yl}(cyclopropyl) methanone] | 0.024 nM
CC1(C(=O)N2CC[C@](C)(N3CCc4c(-c5cnc(N)nc5)nc(N5CCOCC5)nc43)C2)CC1 [Example 329, {(3S)-3-[4-(2-aminopyrimidin-5-yl)-2-(morpholin-4-yl)-5,6-dihydro-7H-pyrrolo[2,3-d]pyrimidin-7-yl]-3-methylpyrrolidin-1-yl}(1-methylcyclopropyl) methanone] | <0.018 nM
CC1(C(=O)N2CC[C@@](C)(N3CCc4c(-c5cnc(N)nc5)nc(N5CCOCC5)nc43)C2)CC1 [Example 330, {(3R)-3-[4-(2-aminopyrimidin-5-yl)-2-(morpholin-4-yl)-5,6-dihydro-7H-pyrrolo[2,3-d]pyrimidin-7-yl]-3-methylpyrrolidin-1-yl}(1-methylcyclopropyl) methanone] | 0.152 nM
C[C@]1(N2CCc3c(-c4cnc(N)nc4)nc(N4CCOCC4)nc32)CCN(C(=O)[C@H]2C[C@@H]2F)C1 [Example 332, {(3S)-3-[4-(2-aminopyrimidin-5-yl)-2-(morpholin-4-yl)-5,6-dihydro-7H-pyrrolo[2,3-d]pyrimidin-7-yl]-3-methylpyrrolidin-1-yl}[(1R,2S)-2-fluorocyclopropyl] methanone] | <0.018 nM
C[C@]1(N2CCc3c(-c4cnc(N)nc4)nc(N4CCOCC4)nc32)CCN(C(=O)[C@@H]2C[C@H]2F)C1 [Example 333, {(3S)-3-[4-(2-aminopyrimidin-5-yl)-2-(morpholin-4-yl)-5,6-dihydro-7H-pyrrolo[2,3-d]pyrimidin-7-yl]-3-methylpyrrolidin-1-yl}[(1S,2R)-2-fluorocyclopropyl] methanone] | <0.018 nM
C[C@]1(N2CCc3c(-c4cnc(N)nc4)nc(N4CCOCC4)nc32)CCN(C(=O)[C@@H]2C[C@@H]2F)C1 [Example 334, {(3S)-3-[4-(2-aminopyrimidin-5-yl)-2-(morpholin-4-yl)-5,6-dihydro-7H-pyrrolo[2,3-d]pyrimidin-7-yl]-3-methylpyrrolidin-1-yl}[(1S,2S)-2-fluorocyclopropyl] methanone] | 0.021 nM
